According to the NIST ThermoML archive (doi:10.1021/je800335v):

How the values were obtained:
[1] = molar heat capacity at constant pressure; conditions: 101.33 kPa, Liquid, Small sample (50 mg) DSC
[2] = molar heat capacity at constant pressure; xn = mol fraction of the nth substance listed; conditions: 298 K, 101 kPa, Liquid, Small sample (50 mg) DSC

CCCCCCCCn1cc[n+](C)c1.O=S(=O)([N-]S(=O)(=O)C(F)(F)F)C(F)(F)F
[1]
Conditions | molar heat capacity at constant pressure [J/K/mol]
293 K | 724
298 K | 733
303 K | 741
308 K | 748
313 K | 756
318 K | 765
323 K | 773
328 K | 779
333 K | 788
338 K | 795
343 K | 803
348 K | 810
353 K | 817
358 K | 825

CCCC[n+]1ccn(C)c1.O=S(=O)([N-]S(=O)(=O)C(F)(F)F)C(F)(F)F + CCCCn1cc[n+](C)c1.[Cl-]
[2]
Conditions | molar heat capacity at constant pressure [J/K/mol]
x2 = 0.0919 | 549
x2 = 0.2394 | 515
x2 = 0.4129 | 468
x2 = 0.5832 | 420

CCCCCC[n+]1ccn(C)c1.O=S(=O)([N-]S(=O)(=O)C(F)(F)F)C(F)(F)F
[1]
Conditions | molar heat capacity at constant pressure [J/K/mol]
293 K | 669
298 K | 667
303 K | 667
308 K | 668
313 K | 671
318 K | 673
323 K | 675
328 K | 676
333 K | 679
338 K | 680
343 K | 683
348 K | 685
353 K | 687
358 K | 689

CCCC[N+]1(C)CCCC1.FC(F)(F)C(F)(F)[P-](F)(F)(F)(C(F)(F)C(F)(F)F)C(F)(F)C(F)(F)F
[1]
Conditions | molar heat capacity at constant pressure [J/K/mol]
293 K | 767
298 K | 769
303 K | 773
308 K | 776
313 K | 781
318 K | 785
323 K | 788
328 K | 791
333 K | 796
338 K | 799
343 K | 803
348 K | 806
353 K | 809
358 K | 812

CCCCn1cc[n+](C)c1.O=S(=O)([O-])C(F)(F)F [1-butyl-3-methylimidazolium trifluoromethanesulfonate] + O
[2]
Conditions | molar heat capacity at constant pressure [J/K/mol]
x2 = 0.0108 | 448
x2 = 0.137 | 401
x2 = 0.3379 | 325
x2 = 0.5215 | 257

CCCCCCCCCCCCCC[P+](CCCCCC)(CCCCCC)CCCCCC.O=S(=O)([N-]S(=O)(=O)C(F)(F)F)C(F)(F)F
[1]
Conditions | molar heat capacity at constant pressure [J/K/mol]
293 K | 1366
298 K | 1366
303 K | 1368
308 K | 1372
313 K | 1379
318 K | 1384
323 K | 1389
328 K | 1389
333 K | 1395
338 K | 1397
343 K | 1402
348 K | 1405
353 K | 1409
358 K | 1413

CCCC[N+]1(C)CCCC1.O=S(=O)([N-]S(=O)(=O)C(F)(F)F)C(F)(F)F
[1]
Conditions | molar heat capacity at constant pressure [J/K/mol]
293 K | 630
298 K | 629
303 K | 632
308 K | 639
313 K | 644
318 K | 650
323 K | 654
328 K | 656
333 K | 659
338 K | 661
343 K | 660
348 K | 659
353 K | 658

CCCC[n+]1ccn(C)c1.O=S(=O)([N-]S(=O)(=O)C(F)(F)F)C(F)(F)F
[1]
Conditions | molar heat capacity at constant pressure [J/K/mol]
293 K | 595
298 K | 599
303 K | 603
308 K | 607
313 K | 612
318 K | 617
323 K | 621
328 K | 624
333 K | 628
338 K | 631
343 K | 634
348 K | 636
353 K | 639
358 K | 641

CCCCn1cc[n+](C)c1.O=S(=O)([O-])C(F)(F)F [1-butyl-3-methylimidazolium trifluoromethanesulfonate]
[1]
Conditions | molar heat capacity at constant pressure [J/K/mol]
293 K | 455
298 K | 457
303 K | 459
308 K | 461
313 K | 465
318 K | 469
323 K | 473
328 K | 477
333 K | 481
338 K | 486
343 K | 490
348 K | 495
353 K | 500
358 K | 504

CCOS(=O)(=O)[O-].CCn1cc[n+](C)c1 [1-ethyl-3-methylimidazolium ethyl sulfate]
[1]
Conditions | molar heat capacity at constant pressure [J/K/mol]
293 K | 388
298 K | 389
303 K | 391
308 K | 394
313 K | 398
318 K | 402
323 K | 406
328 K | 410
333 K | 415
338 K | 420
343 K | 427
348 K | 433
353 K | 440
358 K | 447

CCn1cc[n+](C)c1.O=S(=O)([N-]S(=O)(=O)C(F)(F)F)C(F)(F)F
[1]
Conditions | molar heat capacity at constant pressure [J/K/mol]
293 K | 523
298 K | 525
303 K | 527
308 K | 529
313 K | 533
318 K | 535
323 K | 538
328 K | 539
333 K | 542
338 K | 545
343 K | 547
348 K | 548
353 K | 550
358 K | 551
